Assay [1] deals with T1, SfruOBP31 (Spodoptera frugiperda, UniProt A0A2H1W9W7). The assay can be described thus: fluorescence competitive binding assay with the probe 1-NPN. Particulars: for Ki: competing ligand 2–20 µM, 2.0 µM 1-NPN, 2.0 µM protein, Ki < 20 µM recognized as binding; for binding of SfruOBP31 to the ligand (in words): competitive binding with 1-NPN, threshold Ki < 20 µM recognized as binding. As to the method:
To investigate the ligand binding ability of SfruOBP31, we used a fluorescence competitive binding assay using the fluorescent probe N-phenyl-1-naphthylamine (1-NPN). Binding experiments were performed on a microplate reader using a Greiner 96 Black Flat Bottom. Among the ligands, we tested five host volatiles from the host plant Zea mays: decanal (97% purity, Shanghai Acmec Biochemical Co., Ltd., Shanghai, China), linalool (98% purity, Shanghai Acmec Biochemical Co., Ltd.), leaf alcohol (98% purity, Shanghai Acmec Biochemical Co., Ltd.), 1-nonanol (98% purity, Shanghai Acmec Biochemical Co., Ltd.), and cis-3-hexenyl acetate (98% purity, Shanghai Acmec Biochemical Co., Ltd.); four pheromones: (Z)-9-tetradecenyl acetate (93% purity, Shenzhen Regent Biochemical Technology Co., Ltd., Shenzhen, China), (Z)-11-hexadecenyl acetate (98% purity, Shanghai Bidd Medical Technology Co., Ltd., Shanghai, China), (Z)-7-dodecenyl acetate (90% purity, Shanghai Bidd Medical Technology Co., Ltd.), and (Z)-9-dodecenyl acetate (90% purity, Shanghai Bidd Medical Technology Co., Ltd.); and five pesticides: emamectin benzoate (90% purity, Energy Chemical), lufenuron (97.4% purity, Shanghai Yuanye Biotechnology Co., Ltd., Shanghai, China), chlorfenapyr (98% purity, Shanghai Yuanye Biotechnology Co., Ltd.), chlorantraniliprole (95% purity, Shanghai Yuanye Biotechnology Co., Ltd.), and lambda-cyhalothrin (96% purity, Guangdong Liwei Chemical Co., Ltd., Maoming, China). All chemicals used for testing and the fluorescent probe 1-NPN were dissolved in GC purify-grade methanol in a 400 µM solution. The 2.0 µM protein solution (in 10 mM HEPES and 100 mM NaCl buffer, pH 7.5) was titrated with 400 µM 1-NPN to a final concentration of 2–20 µM. The binding constant of the protein to 1-NPN was analyzed by assessing the continuous change of fluorescence value. Compounds of 2–20 µM concentration were added to the mixture of 2.0 µM 1-NPN and 2.0 µM protein or 2.0 µM 1-NPN alone to determine the binding rate of the ligands to the protein and the value of the fluorescence. The final fluorescence value was calculated as the fluorescence value after the addition of 1-NPN and protein with the competing ligand minus the fluorescence value after the addition of 1-NPN with the competing ligand only.
The dissociation constants (K1-NPN) of SfruOBP31 were calculated using Graphpad Prism 8 software. The dissociation constant (Ki) of 1-NPN by competing ligands was calculated with the following formula using IC50 value: Ki = [IC50]/(1 + [1-NPN]/K1-NPN). Here, IC50 is the concentration of competing ligands when the fluorescence intensity reaches half of the initial fluorescence intensity of 1-NPN, and [1-NPN] indicates the concentration of 1-NPN [16]. A threshold of Ki < 20 µM was recognized as binding.

For assay [2], the target named is T1, SfruOBP31. The assay can be described thus: 1-NPN fluorescence binding (titration of SfruOBP31 with 1-NPN). Conditions: binding curve of SfruOBP31 with 1-NPN. As to the method: To investigate the ligand binding ability of SfruOBP31, we used a fluorescence competitive binding assay using the fluorescent probe N-phenyl-1-naphthylamine (1-NPN). Binding experiments were performed on a microplate reader using a Greiner 96 Black Flat Bottom. […] The binding constant of the protein to 1-NPN was analyzed by assessing the continuous change of fluorescence value. Compounds of 2–20 µM concentration were added to the mixture of 2.0 µM 1-NPN and 2.0 µM protein or 2.0 µM 1-NPN alone to determine the binding rate of the ligands to the protein and the value of the fluorescence. The final fluorescence value was calculated as the fluorescence value after the addition of 1-NPN and protein with the competing ligand minus the fluorescence value after the addition of 1-NPN with the competing ligand only.
The dissociation constants (K1-NPN) of SfruOBP31 were calculated using Graphpad Prism 8 software. The dissociation constant (Ki) of 1-NPN by competing ligands was calculated with the following formula using IC50 value: Ki = [IC50]/(1 + [1-NPN]/K1-NPN). Here, IC50 is the concentration of competing ligands when the fluorescence intensity reaches half of the initial fluorescence intensity of 1-NPN, and [1-NPN] indicates the concentration of 1-NPN [16]. […]

Setting [3] is: Ki = [IC50]/(1 + [1-NPN]/K1-NPN).
[4] abbreviates: Ki = [IC50]/(1 + [1-NPN]/K1-NPN), read-out: Ki.

Where two headings read alike, the source gives them in different places.

The source of these data is paper PMC10056595, “Odorant-Binding Proteins and Chemosensory Proteins in Spodoptera frugiperda: From Genome-Wide Identification and Developmental Stage-Related Expression Analysis to the Perception of Host Plant Odors, Sex Pheromones, and Insecticides” (International Journal of Molecular Sciences, 2023).

T1 sequence (A0A2H1W9W7 entry or part of it): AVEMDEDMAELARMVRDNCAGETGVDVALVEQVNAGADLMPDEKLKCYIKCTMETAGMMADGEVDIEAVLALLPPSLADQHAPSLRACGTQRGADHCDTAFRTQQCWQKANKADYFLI

With `CC1(C)[C@H](C(=O)O[C@H](C#N)c2cccc(Oc3ccccc3)c2)[C@@H]1/C=C(\Cl)C(F)(F)F` (racemic) [lambda-cyhalothrin, reference compound], at SfruOBP31 [1] (setting [3]), the Ki was 2.78 µM. As to `c1ccc(Nc2cccc3ccccc23)cc1` [1-NPN, N-phenyl-1-naphthylamine], at SfruOBP31 [2], the “Bmax (1-NPN, printed in Figure 11A)” value is 702,842. Regarding `CCCCCCCCCO` [1-nonanol], the Ki on SfruOBP31 [1] (setting [4]) was determined as 14.2 µM. For `CCCC/C=C\CCCCCCCCOC(C)=O` [(Z)-9-tetradecenyl acetate], the Ki on SfruOBP31 [1] (setting [4]) is 5.02 µM. The “binding of SfruOBP31 to the ligand (in words)” value (“binding of SfruOBP31” for short) at SfruOBP31 [1] is reported as “selectively binds”. Consider `CCCC/C=C\CCCCCCCCCCOC(C)=O` [(Z)-11-hexadecenyl acetate], for which the Ki at SfruOBP31 [1] (setting [4]) turned out to be 5.4 µM. Further, the “binding of SfruOBP31” value on SfruOBP31 [1] was “selectively binds”. As for `CNC(=O)c1cc(Cl)cc(C)c1NC(=O)c1cc(Br)nn1-c1ncccc1Cl` [chlorantraniliprole, reference compound], the Ki on SfruOBP31 [1] (setting [3]) was 22.3 µM. Besides, at SfruOBP31 [1], the “binding of SfruOBP31” value is on record as “lack of binding”. As for `CCOCn1c(-c2ccc(Cl)cc2)c(C#N)c(Br)c1C(F)(F)F` [chlorfenapyr, reference compound], the Ki at SfruOBP31 [1] (read-out: Ki (unit inferred)) stood at 8.1 µM. As for `CC/C=C\CCOC(C)=O` [cis-3-hexenyl acetate], the inhibition constant (Ki) on SfruOBP31 [1] (setting [4]) came out at 6.38 µM. Regarding `CCCCCCCCCC=O` [decanal], the Ki on SfruOBP31 [1] (setting [4]) was determined as 19.6 µM. On to `C=CC(C)(O)CCC=C(C)C` (centres unmarked) [linalool], for which the Ki at SfruOBP31 [1] (setting [3]) came to 4.04 µM. For the compound `O=C(NC(=O)c1c(F)cccc1F)Nc1cc(Cl)c(OC(F)(F)C(F)C(F)(F)F)cc1Cl` (centres unmarked) [lufenuron, reference compound], the Ki on SfruOBP31 [1] (setting [3]) was determined as 37.6 µM. In addition, the “binding of SfruOBP31” value on SfruOBP31 [1] was “lack of binding”. For emamectin benzoate [reference compound], the Ki at SfruOBP31 [1] (setting [4]) turned out to be 27.6 µM. At SfruOBP31 [1], the “binding of SfruOBP31” value is given as “lack of binding”.
